Source: publication PMC8470334, “N-Heterocyclic Carbene Iron Complexes as Anticancer Agents: In Vitro and In Vivo Biological Studies” (Molecules, 2021)

Experiments:
[1] = test system: A2780 cell line; assay: MTS cell viability assay (CellTiter 96), A2780; type: cell-based, human; conditions: for IC50: A2780, 48 h exposure, MTS, mean ± SEM; for SI (selectivity index): IC50 of fibroblasts / IC50 of A2780
Protocol: (§1) The in vitro cytotoxic potential of complexes Fe1 and Fe2 was evaluated through the CellTiter 96®Aqueous Non-Radioactive Cell Proliferation Assay using MTS, as described in Section 3.3.2 [26].
(§2) The antiproliferative activity of both complexes was evaluated through the exposure of the A2780 cell line to 0.01–50 µM of complexes Fe1 or Fe2 (Figure 3A) and of the HCT116 cell line to 0.1–50 µM of complexes Fe1 or Fe2 (Figure 3B) for 48 h.
(§3) Human colorectal carcinoma (HCT116) and normal dermal fibroblasts cell lines were grown in Dulbecco’s modified Eagle’s medium (DMEM) (Invitrogen Corp., Grand Island, NY, USA) supplemented with 10% (v/v) foetal bovine serum and 1% (v/v) antibiotic/antimycotic solution (Invitrogen Corp.). Human ovarian carcinoma (A2780) cell line was cultivated using the Roswell Park Memorial Institute (RPMI) medium supplemented as DMEM. The supplemented medium is named complete medium. Cells were grown in an incubator with a humidified atmosphere at 5% (v/v) CO2 and 37 °C. All cell lines were purchase from ATCC (ATCC®, American Type Culture Collection, Washington, DC, USA).
(§4) The evaluation of the cytotoxic potential of the complexes Fe1 and Fe2 was obtained through the measurement in vitro of the antiproliferative activity of these complexes. Cells were plated in 96-well plates at 7.5 × 10^4 cells/mL and incubated at 37 °C with 5% (v/v) CO2. After 24 h, the culture medium was replaced with a fresh medium containing 0.01–100 µM of complexes Fe1 or Fe2 and incubated for 48 h, as described previously. DMSO 0.1% (v/v) was used as the vehicle control for all cell lines. The fibroblasts cell line was used as a control of cytotoxicity of the complexes for healthy cells. Cisplatin was used as a positive control (a common chemotherapeutic agent). Cell viability was evaluated using CellTiter 96®Aqueous Non-Radioactive Cell Proliferation Assay (Promega, Madison, WI, USA) using 3-(4,5-dimethylthiazol-2-yl)-5-(3-carboxymethoxyphenyl)-2-(4-sulfophenyl)-2H-tetrazolium, inner salt (MTS), as described previously. In metabolically active cells, enzymes present in the mitochondria catalyse a reaction in which NADPH/ NADH is produced. These enzymes can reduce the MTS reagent into a brownish-coloured product called formazan, which can be quantified by measuring the absorbance at 490 nm. The quantity of product produced is directly proportional to the number of viable cells in culture. The amount of formazan product formed was measured with a Bio-Rad Microplate Reader Model 680 (Bio-Rad, Hercules, CA, USA). Half maximal inhibitory concentration (IC50) was calculated using GraphPad Prism 6 (GraphPad Software, La Jolla, CA, USA). Selectivity index (SI) was calculated for both tumour cell lines by dividing the IC50 of fibroblasts with the IC50 of HCT116 or A2780 for complexes Fe1 and Fe2.

[2] = test system: HCT116 cell line; assay: MTS cell viability assay (CellTiter 96), HCT116; type: cell-based, human; conditions: for IC50: HCT116, 48 h exposure, MTS, mean ± SEM; for SI (selectivity index): IC50 of fibroblasts / IC50 of HCT116
Protocol: as §1, §2, §3, §4

[3] = test system: human HCT116 colorectal cancer cells; assay: Zebrafish embryo xenograft assay; type: in vivo; conditions: compared with control
Protocol: HCT116 human colorectal cancer cell line was incubated in standard conditions in a humidified incubator at 37 °C and 5% CO2 until a confluence of 70–80% was reached. Afterwards, the cells were concentrated and labelled with DiI and injected in the circulation (Duct of Cuvier) of 48 hpf zebrafish embryos in order to assay the proliferation in vivo of the cells exposed to Fe1 and Fe2. Fe1 and Fe2 (5 μM and 0.25 μM, respectively) were dissolved in the water at 1-day post injection (dpi) to allow the recovery of the embryos from the injection in the first 24 h and maintained until the end of the experiment at 3 dpi. Imaging of the embryos was performed at 1 dpi and 3 dpi to quantify the fluorescence and area of the cells in the caudal hematopoietic tissue (CHT) in the tail of the embryos, where cells invade and grow, and measure their proliferation over time to assess the inhibitory effect of the compounds assayed over the cells.
The results were calculated based on a comparison between 3 dpi and 1 dpi time points and normalised at 3 dpi against control conditions due to the nature of the lipophilic dye in the proliferation of the cells. […]
At 1 dpi, the embryos were imaged, and the compound (Fe1 and Fe2) was added to the water. […] Imaging of the embryos was performed using a fluorescence stereomicroscope (AZ-100, Nikon, Tokyo, Japan). […]

[4] = test system: zebrafish embryos; assay: Fish embryo acute toxicity test (FET); type: in vivo, zebrafish (Danio rerio); conditions: for LC50: early blastula stage up to 72 hpf, Logit and Probit analyses; for LOEC (lowest observed effect concentration) / NOEC (no observed effect concentration): up to 72 hpf
Protocol: In addition, the mortality distribution obtained for each compound allowed the accurate estimation of the LC50 (Figure 7). […] For this reason, Fe1 and Fe2 compounds were analysed in vivo using colorectal HCT116 zebrafish xenograft.
The wild-type zebrafish were housed in a water recirculation system under controlled physicochemical conditions of temperature (26 ± 2 °C), pH (7–7.5), and conductivity (400–600 µS/cm). The fertilised eggs were collected after natural spawning and housed in Petri dishes until their use. Next, eggs were exposed to Fe1 and Fe2 and dissolved in water containing 1% DMSO. Then, toxicological analyses were carried out based on the approved standard OECD TG 236—fish embryo toxicity test (FET), with modifications. For the study, four replicates of 12 embryos were distributed for each of the 5 concentrations tested for compounds; for Fe1, the concentrations used were 15, 20, 25, 30, 35 µM), and for Fe2 were 1, 5, 10, 15, 20 µM. The performed zebrafish toxicity experiments were approved by the animal care and use committee of the University of Santiago de Compostela and the standard protocols of Spain (CEEA-LU-003 and […]). The toxicity results data were analysed by probit analysis using ToxRat Software (ToxRat Solutions. 2003. ToxRat. Software for statistical analysis of bioassays. Alsdorf, Germany).

[5] = test system: normal dermal fibroblasts; assay: MTS cell viability assay (CellTiter 96), fibroblasts; type: cell-based, human; conditions: 48 h exposure, mean ± SEM
Protocol: The antiproliferative effect of complexes Fe1 and Fe2 was also tested on a nontumor cell line, fibroblasts, to evaluate their antiproliferative activity in healthy cells. For that, a range of concentrations from 0.01 to 100 µM of both complexes was used (Figure 4). As previously observed for the tumour cell lines, a concentration-dependent reduction of cell viability is observed (Figure 3 and Figure 4).
Human colorectal carcinoma (HCT116) and normal dermal fibroblasts cell lines were grown in Dulbecco’s modified Eagle’s medium (DMEM) (Invitrogen Corp., Grand Island, NY, USA) supplemented with 10% (v/v) foetal bovine serum and 1% (v/v) antibiotic/antimycotic solution (Invitrogen Corp.). […]
The evaluation of the cytotoxic potential of the complexes Fe1 and Fe2 was obtained through the measurement in vitro of the antiproliferative activity of these complexes. […] Cell viability was evaluated using CellTiter 96®Aqueous Non-Radioactive Cell Proliferation Assay (Promega, Madison, WI, USA) using 3-(4,5-dimethylthiazol-2-yl)-5-(3-carboxymethoxyphenyl)-2-(4-sulfophenyl)-2H-tetrazolium, inner salt (MTS), as described previously. […] These enzymes can reduce the MTS reagent into a brownish-coloured product called formazan, which can be quantified by measuring the absorbance at 490 nm. The quantity of product produced is directly proportional to the number of viable cells in culture. […]

[6] = Stability in PBS by UV-visible spectrum; type: physicochemical; conditions: PBS pH 7.0, room temperature, aerobic, over 48 h
Protocol: The stability of complexes Fe1 and Fe2 was evaluated over 48 h at room temperature by monitoring their UV–visible spectrum in PBS (pH 7.0) (Figure 2). […] Based on our previous works with Ru carbonyl metal complexes, we speculate that release of CO ligand, 2 in the case of Fe1 and 1 in the case of Fe2, may occur in the first 30 min, as the decrease profile is more pronounced for Fe1 with two CO ligands (Figure 2B,D). We could also speculate that, in the case of Fe1, both CO ligands might be replaced by water molecules, maintaining the previous charge on this novel Fe species (cationic), while in Fe2, the release of the CO ligand and replacement by water molecule would maintain this new Fe species neutral.
Complexes Fe1 and Fe2 solutions were prepared in 10 mM phosphate-buffered solution (PBS) containing 0.15 M NaCl (pH 7). All spectra were recorded for 48 h on a recorded with a Varian-Cary 100 Bio spectrophotometer (Agilent, Santa Clara, CA, USA), using a quartz cuvette with 1 cm path length in a wavelength range from 220 to 500 nm.

[7] = Solubility in buffer aqueous media; type: physicochemical; conditions: fully soluble on adding DMSO (final not above 0.1% v/v)

N.N.[Cl][Pt][Cl] [Cisplatin, reference compound]
IC50 [1]: 1.9 ± 0.2 µM | IC50 [2]: 15.6 ± 5.3 µM

Cp(IMes)Fe(CO)I [Fe2]
proliferation of HCT116 cells in vivo ([3]; 0.25 μM dissolved in the water from 1 dpi to 3 dpi): reduce the proliferation of human HCT116 colorectal cancer cells in vivo | LC50 [4]: 6.86 µM | LOEC (lowest observed effect concentration) [4]: 5 µM | NOEC (no observed effect concentration) [4]: 1 µM | IC50 [1]: 2.91 ± 0.51 µM | SI (selectivity index) [1]: 14.4 | IC50 [5]: 42 ± 0.75 µM | stability (360 nm band) [6]: a lower decrease of the 360 nm peak intensity occurs within the first 30 min | solubility [7]: insoluble in buffer aqueous media | IC50 [2]: 3.26 ± 0.1 µM | SI (selectivity index) [2]: 12.9

[Cp(IMes)Fe(CO)2]I [Fe1]
proliferation of HCT116 cells in vivo ([3]; 5 μM dissolved in the water from 1 dpi to 3 dpi): reduce the proliferation of human HCT116 colorectal cancer cells in vivo | LC50 [4]: 24.6 µM | LOEC (lowest observed effect concentration) [4]: 20 µM | NOEC (no observed effect concentration) [4]: 15 µM | IC50 [1]: 1.34 ± 0.25 µM | SI (selectivity index) [1]: 17.7 | IC50 [5]: 23.61 ± 0.14 µM | stability (360 nm band) [6]: rapidly transformed into a new Fe species that is then stable, at least, until 24 h | solubility [7]: insoluble in buffer aqueous media | IC50 [2]: 0.87 ± 0.09 µM | SI (selectivity index) [2]: 27.1
